Results: PubChem BioAssay AID248 (DTP/NCI, 2004)
Inconclusive results and toxic doses are left out.

Tested on: L1210 leukemia ip in BDF1 mice, survival T/C
Assay: NCI In Vivo Anticancer Drug Screen. Data for tumor model L1210 Leukemia (intraperitoneal) in B6D2F1 (BDF1) mice
Conditions: endpoint: mean survival time, higher = longer survival
Procedure, shortened: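 In this screen, tumor-bearing mice given compound are compared to those given vehicle, and their survival values are reported as a treated-to-control quotient.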

[1] = dose: 100.0 mg/kg/injection, schedule: Q01DX009 (ip), vehicle: Klucel (hydroxypropylcellulose) (HPC)
[2] = dose: 100.0 mg/kg/injection, schedule: Q04DX003 (ip), vehicle: Klucel (hydroxypropylcellulose) (HPC)
[3] = dose: 200.0 mg/kg/injection, schedule: Q01DX009 (ip), vehicle: Klucel (hydroxypropylcellulose) (HPC)
[4] = dose: 200.0 mg/kg/injection, schedule: Q04DX003 (ip), vehicle: Klucel (hydroxypropylcellulose) (HPC)
[5] = dose: 400.0 mg/kg/injection, schedule: Q01DX009 (ip), vehicle: Klucel (hydroxypropylcellulose) (HPC)
[6] = dose: 400.0 mg/kg/injection, schedule: Q04DX003 (ip), vehicle: Klucel (hydroxypropylcellulose) (HPC)
[7] = dose: 100.0 mg/kg/injection, schedule: Q04DX003 (ip), vehicle: saline
[8] = dose: 100.0 mg/kg/injection, schedule: Q01DX009 (ip), vehicle: saline
[9] = dose: 25.0 mg/kg/injection, schedule: Q01DX009 (ip), vehicle: saline
[10] = dose: 50.0 mg/kg/injection, schedule: Q01DX009 (ip), vehicle: saline
[11] = dose: 100.0 mg/kg/injection, schedule: Q04DX003 (ip), vehicle: saline with Tween-80
[12] = dose: 25.0 mg/kg/injection, schedule: Q04DX003 (ip), vehicle: saline with Tween-80
[13] = dose: 50.0 mg/kg/injection, schedule: Q04DX003 (ip), vehicle: saline with Tween-80

O=CNC(NC=O)c1ccccc1[N+](=O)[O-]
T/C [1]: 101 % of control | T/C [2]: 104 % of control | T/C [3]: 98 % of control | T/C [4]: 98 % of control | T/C [5]: 97 % of control | T/C [6]: 100 % of control

CCOC(=O)C(C#N)NC(C)=O (configuration not stated)
T/C [2]: 102 % of control | T/C [4]: 102 % of control | T/C [6]: 111 % of control

CC(C)(C)C1=CC(=O)C(C#N)=C(C#N)C1=O
T/C [7]: 96 % of control

CC(=O)OC1c2sccc2Cc2ccsc21
T/C (dose: 100.0 mg/kg/injection, schedule: Q01DX001 (ip), vehicle: saline with Tween-80): 91 % of control | T/C (dose: 200.0 mg/kg/injection, schedule: Q01DX001 (ip), vehicle: saline with Tween-80): 105 % of control

O=C1C=C(N2CC2)C(=O)C(N2CC2)=C1N1CC1
T/C (dose: 0.07 mg/kg/injection, schedule: Q01DX001 (ip), vehicle: saline): 112 % of control | T/C (dose: 0.1 mg/kg/injection, schedule: Q01DX Z (ip), vehicle: saline): 93 % of control | T/C (dose: 0.3 mg/kg/injection, schedule: Q01DX001 (ip), vehicle: saline): 155 % of control | T/C (dose: 0.6 mg/kg/injection, schedule: Q01DX001 (ip), vehicle: saline): 87 % of control | T/C (dose: 6.3 micrograms/kg/injection, schedule: Q01DX015 (ip), vehicle: saline): 107 % of control | T/C (dose: 12.5 micrograms/kg/injection, schedule: Q01DX015 (ip), vehicle: saline): 102 % of control | T/C (dose: 25.0 micrograms/kg/injection, schedule: Q01DX015 (ip), vehicle: saline): 113 % of control | T/C (dose: 75.0 micrograms/kg/injection, schedule: Q01DX009 (ip), vehicle: saline): 113 % of control

N#Cc1c2c(c(O)[nH]c1=O)CCCC2
T/C [8]: 97 % of control | T/C [2]: 94 % of control | T/C (dose: 200.0 mg/kg/injection, schedule: Q01DX009 (ip), vehicle: saline): 97 % of control | T/C [4]: 102 % of control | T/C (dose: 400.0 mg/kg/injection, schedule: Q01DX009 (ip), vehicle: saline): 101 % of control | T/C [6]: 96 % of control

Nc1cc2c(cc1I)-c1ccc(Br)cc1C2
T/C (dose: 100.0 mg/kg/injection, schedule: Q01DX001 (ip), vehicle: carboxymethylcellulose (CMC)): 102 % of control | T/C (dose: 200.0 mg/kg/injection, schedule: Q01DX001 (ip), vehicle: carboxymethylcellulose (CMC)): 107 % of control | T/C (dose: 400.0 mg/kg/injection, schedule: Q01DX001 (ip), vehicle: carboxymethylcellulose (CMC)): 98 % of control

CN(C)CCCn1c2c(c3ccccc31)CCCCCC2
T/C (dose: 6.25 mg/kg/injection, schedule: Q01DX009 (ip), vehicle: saline): 96 % of control | T/C (dose: 12.5 mg/kg/injection, schedule: Q01DX009 (ip), vehicle: saline): 93 % of control | T/C [9]: 98 % of control | T/C [10]: 102 % of control

Cc1cc(N=Cc2ccc(Cl)cc2)c(N=Cc2ccc(Cl)cc2)cc1C
T/C (dose: 100.0 mg/kg/injection, schedule: Q01DX005 (ip), vehicle: Klucel (hydroxypropylcellulose) (HPC)): 99 % of control | T/C [1]: 108 % of control | T/C (dose: 100.0 mg/kg/injection, schedule: Q04DX002 (ip), vehicle: Klucel (hydroxypropylcellulose) (HPC)): 95 % of control | T/C (dose: 200.0 mg/kg/injection, schedule: Q01DX005 (ip), vehicle: Klucel (hydroxypropylcellulose) (HPC)): 96 % of control | T/C [3]: 115 % of control | T/C (dose: 200.0 mg/kg/injection, schedule: Q04DX002 (ip), vehicle: Klucel (hydroxypropylcellulose) (HPC)): 95 % of control | T/C (dose: 400.0 mg/kg/injection, schedule: Q01DX005 (ip), vehicle: Klucel (hydroxypropylcellulose) (HPC)): 92 % of control | T/C [5]: 97 % of control | T/C (dose: 400.0 mg/kg/injection, schedule: Q04DX002 (ip), vehicle: Klucel (hydroxypropylcellulose) (HPC)): 95 % of control

CCCc1cn(C2OC(=O)c3ccccc32)c2ccccc12 (configuration not stated)
T/C (dose: 100.0 mg/kg/injection, schedule: Q01DX001 (ip), vehicle: saline): 96 % of control | T/C [7]: 109 % of control | T/C (dose: 200.0 mg/kg/injection, schedule: Q01DX001 (ip), vehicle: saline): 105 % of control | T/C (dose: 200.0 mg/kg/injection, schedule: Q04DX003 (ip), vehicle: saline): 97 % of control | T/C (dose: 400.0 mg/kg/injection, schedule: Q01DX001 (ip), vehicle: saline): 102 % of control | T/C (dose: 400.0 mg/kg/injection, schedule: Q04DX003 (ip), vehicle: saline): 101 % of control

CC(C)CN1CCCC(=O)C(O)CCC1 (configuration not stated)
T/C (dose: 100.0 mg/kg/injection, schedule: Q01DX001 (ip), vehicle: acetone): 101 % of control

CN(C)C(=S)Oc1ccccc1[N+](=O)[O-]
T/C [11]: 100 % of control | T/C (dose: 200.0 mg/kg/injection, schedule: Q04DX003 (ip), vehicle: saline with Tween-80): 103 % of control | T/C (dose: 400.0 mg/kg/injection, schedule: Q04DX003 (ip), vehicle: saline with Tween-80): 114 % of control

CC1(C)C2CC3C(=CCC4C(=O)OC(=O)C43)C1C2 (configuration not stated)
T/C [1]: 104 % of control | T/C [2]: 101 % of control | T/C [3]: 100 % of control | T/C [4]: 100 % of control | T/C [6]: 100 % of control

CC(=O)Nc1cc2c(cc1Br)-c1ccc(F)cc1C2
T/C (dose: 200.0 mg/kg/injection, schedule: Q01DX Z (ip), vehicle: saline): 98 % of control | T/C (dose: 400.0 mg/kg/injection, schedule: Q01DX Z (ip), vehicle: saline): 102 % of control | T/C (dose: 800.0 mg/kg/injection, schedule: Q01DX Z (ip), vehicle: saline): 110 % of control

CC1(C)C2CCC(CCO)C1C2 (configuration not stated)
T/C (dose: 12.5 mg/kg/injection, schedule: Q04DX003 (ip), vehicle: saline with Tween-80): 92 % of control | T/C [9]: 96 % of control | T/C [12]: 88 % of control | T/C [10]: 92 % of control | T/C [13]: 95 % of control | T/C [8]: 88 % of control | T/C [11]: 92 % of control

Cc1ccc(N=Cc2cc(Br)cc(Br)c2O)cc1.Cc1ccc(N=Cc2cc(Br)cc(Br)c2O)cc1.[Co]
T/C [12]: 104 % of control | T/C [13]: 100 % of control | T/C [11]: 100 % of control

CC/C(=N\N=C(N)N)c1ccc(NC(=S)Nc2ccccc2)cc1
T/C (dose: 20.0 mg/kg/injection, schedule: Q01DX009 (ip), vehicle: saline): 101 % of control | T/C (dose: 40.0 mg/kg/injection, schedule: Q01DX009 (ip), vehicle: saline): 101 % of control | T/C (dose: 80.0 mg/kg/injection, schedule: Q01DX009 (ip), vehicle: saline): 107 % of control

CP1(=S)CCC(=O)CC1
T/C (dose: 100.0 mg/kg/injection, schedule: Q04DX002 (ip), vehicle: saline with Tween-80): 91 % of control | T/C (dose: 200.0 mg/kg/injection, schedule: Q04DX002 (ip), vehicle: saline with Tween-80): 95 % of control | T/C (dose: 400.0 mg/kg/injection, schedule: Q04DX002 (ip), vehicle: saline with Tween-80): 98 % of control

C[C@]12CC[C@H]3[C@@H](CC[C@@H]4C[C@@H](O)CC[C@@]43C=O)[C@]13O[C@@H]3CC2c1ccc(=O)oc1 (some centres not stated)
T/C (dose: 0.25 mg/kg/injection, schedule: Q01DX009 (ip), vehicle: Klucel (hydroxypropylcellulose) (HPC)): 100 % of control | T/C (dose: 0.5 mg/kg/injection, schedule: Q01DX009 (ip), vehicle: Klucel (hydroxypropylcellulose) (HPC)): 100 % of control | T/C (dose: 1.0 mg/kg/injection, schedule: Q01DX009 (ip), vehicle: Klucel (hydroxypropylcellulose) (HPC)): 100 % of control

CC(C)(C)NNC(C)(C)C
T/C (dose: 9.38 mg/kg/injection, schedule: Q01DX001 (ip), vehicle: other): 102 % of control | T/C (dose: 18.75 mg/kg/injection, schedule: Q01DX001 (ip), vehicle: other): 96 % of control | T/C (dose: 37.5 mg/kg/injection, schedule: Q01DX001 (ip), vehicle: other): 96 % of control
